According to PMC4151706 (Journal of the American Chemical Society, 2014):

Molecular target: HIV-1 protease WT subtype C (Human immunodeficiency virus type 1 group M subtype C, UniProt O12158)
Settings: protease variant subtype C

Chain of HIV-1 protease WT subtype C (O12158 485-583): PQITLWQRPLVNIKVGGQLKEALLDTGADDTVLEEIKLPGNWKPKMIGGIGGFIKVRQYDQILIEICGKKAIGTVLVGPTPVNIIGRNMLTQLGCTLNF

Q: Which Ki does the source give for CC(C)CN(C[C@@H](O)[C@H](Cc1ccccc1)NC(=O)O[C@H]1CO[C@H]2OCC[C@H]21)S(=O)(=O)c1ccc(N)cc1 [DRV, Darunavir] here?
A: The Ki was 5 ± 2 pM.
